Source: patent US20260297121A1, “MITHRAMYCIN (MTM) 2’ OXIMES” (University of Kentucky Research Foundation, priority 2023, published 2026)
Read-outs that look alike come from different tables or passages of the source.

Tests used:
[1] = log P; format: physicochemical; settings: Table 2
[2] = Clearance (CL) / pharmacokinetics; format: in vivo, mice; settings: mouse, plasma, iv; Table 2
Protocol: (§1) Exemplary compounds of the presently-disclosed subject matter were assessed for activity, including clearance, potency, and selectivity. Results from studies are compiled in Tables 2-4.
(§2) Desirable clearance was identified at lower values of mL hr^−1kg^−1 (e.g., about ≤10 mL hr^−1 kg^−1), desirable potency was identified at lower values of IC50 (e.g., about ≤10 nM in TC32 cells), and desired selectivity was identified at higher ratios of IC50 in PC3/IC50 in TC32 (e.g. about >10).
Pharmacokinetics of exemplary compounds of the presently-disclosed subject matter were studied in mice following bolus IV dosing. Groups of three mice were administered the compound(s) and blood samples were collected via saphenous bleed. Plasma was separated by centrifugation and extracted to quantitate analytes by LC/MS/MS. Sample analysis followed upon the system meeting system suitability criteria customary for fit for purpose analytical methods. FIG. 1A includes data comparing YL-C09 to mithramycin (MTM) dosed separately. FIG. 1B includes data for YL-B171, YL-C110 and MTM dosed in cassette format.

[3] = tested on: TC32 cells; test: Potency IC50 in TC32 cells and selectivity; format: cell-based; settings: Homo sapiens, TC-32, Table 2, read-out: IC50 TC32
Protocol: as §1, §2

[4] = tested on: PC3; test: IC50 in PC3 cells; format: cell-based; settings: Homo sapiens, PC-3, read-out: IC50 PC2, Table 2; head prints PC2, text PC3
Protocol: as §1, §2

[5] = tested on: TC32; test: Cytotoxicity, resazurin fluorescence, TC32; format: cell-based; settings: Homo sapiens, TC-32, 72 h
Protocol: (§3) Exemplary compounds of the presently-disclosed subject matter were assessed for cytotoxicity (Table 5) in Ewing sarcoma (TC32) and non-Ewing (PC3 prostate cancer). […] Cells (1000-5000/well) were seeded in 96-well plates and allowed to attach and grow for 24 hr prior to adding compounds in half-log increments from 0.3 nM-10 μM. Cell viability was assessed after 72 hr continuous incubation with compounds using resazurin fluorescence. GI50 values were estimated using GraphPad Prism.

[6] = tested on: PC3; test: Cytotoxicity, resazurin fluorescence, PC3; format: cell-based; settings: Homo sapiens, PC-3, 72 h
Protocol: as §3

[7] = tested on: TC71; test: Cytotoxicity, resazurin fluorescence, TC71; format: cell-based; settings: Homo sapiens, TC-71; Table 6; 72 hr; EWS cells
[8] = tested on: 5838; test: Cytotoxicity, resazurin fluorescence, 5838; format: cell-based; settings: Table 6; 72 hr; express EWS-ERG
[9] = tested on: A673; test: Cytotoxicity, resazurin fluorescence, A673; format: cell-based; settings: Homo sapiens, A673; Table 6; 72 hr; EWS cells
[10] = tested on: RDES; test: Cytotoxicity, resazurin fluorescence, RDES; format: cell-based; settings: RD-ES; Table 6; 72 hr; EWS cells
[11] = tested on: SK.ES1; test: Cytotoxicity, resazurin fluorescence, SK.ES1; format: cell-based; settings: Homo sapiens, SK-ES1; Table 6; 72 hr; EWS cells
[12] = tested on: ES3; test: Cytotoxicity, resazurin fluorescence, ES3; format: cell-based; settings: Table 6; 72 hr; EWS cells
[13] = tested on: ES4; test: Cytotoxicity, resazurin fluorescence, ES4; format: cell-based; settings: Table 6; 72 hr; EWS cells
[14] = tested on: ES7; test: Cytotoxicity, resazurin fluorescence, ES7; format: cell-based; settings: Homo sapiens, ES7; Table 6; 72 hr; EWS cells
[15] = tested on: ES8; test: Cytotoxicity, resazurin fluorescence, ES8; format: cell-based; settings: Homo sapiens, ES8; Table 6; 72 hr; EWS cells
[16] = tested on: EWS cells; test: Cytotoxicity, average over Ewing (EWS) cell panel; format: cell-based; settings: Table 6; 72 hr; average of EWS cells
Protocol: as §3

[17] = tested on: BL1395; test: Cytotoxicity, resazurin fluorescence, BL1395; format: cell-based; settings: read-out: GI50 BL1395
[18] = tested on: A549; test: Cytotoxicity, resazurin fluorescence, A549; format: cell-based; settings: Homo sapiens, read-out: GI50 A549
[19] = tested on: DU145; test: Cytotoxicity, resazurin fluorescence, DU145; format: cell-based; settings: Homo sapiens, read-out: GI50 DU145
[20] = tested on: H460; test: Cytotoxicity, resazurin fluorescence, H460; format: cell-based; settings: Homo sapiens, read-out: GI50 H460
[21] = tested on: Hela; test: Cytotoxicity, resazurin fluorescence, Hela; format: cell-based; settings: Homo sapiens, HeLa, read-out: GI50 Hela
[22] = tested on: HepG2; test: Cytotoxicity, resazurin fluorescence, HepG2; format: cell-based; settings: Homo sapiens, read-out: GI50 HepG2
[23] = tested on: LNCap; test: Cytotoxicity, resazurin fluorescence, LNCap; format: cell-based; settings: Homo sapiens, LNCaP, read-out: GI50 LNCap
[24] = tested on: PANC1; test: Cytotoxicity, resazurin fluorescence, PANC1; format: cell-based; settings: Homo sapiens, read-out: GI50 PANC1
[25] = tested on: Non EWS cells; test: Cytotoxicity, average over non-Ewing cell panel; format: cell-based; settings: read-out: GI50 Average, Non EWS cells
Protocol: as §3

[26] = read-out: GI50 TC32, Table 6, EWS cells
[27] = Table 6, non EWS cells, read-out: GI50 PC3
[28] = Table 6, 72 hr, lymphocyte origin
[29] = A549, Table 6, 72 hr, non EWS cells
[30] = DU-145, Table 6, 72 hr, non EWS cells
[31] = NCI-H460, Table 6, 72 hr, non EWS cells
[32] = HepG2, Table 6, 72 hr, hepatic origin
[33] = PANC-1, Table 6, 72 hr, non EWS cells
[34] = Table 6, 72 hr, average of non EWS cells

Row | Structure (SMILES) | logP [1] | clearance [2] | IC50 [3] | IC50 [4] | GI50 ([5]; read-out: GI50 TC32, Table 5) | GI50 [5, 26] | GI50 ([6]; read-out: GI50 PC3, Table 5) | GI50 [7] | GI50 [8] | GI50 [9] | GI50 [10] | GI50 [11] | GI50 [12] | GI50 [13] | GI50 [14] | GI50 [15] | GI50 [16] | also measured
1 | COC(C(=NOCCNC(=O)c1cc2cc(Br)ccc2[nH]1)C(O)C(C)O)C1Cc2cc3cc(OC4CC(OC5CC(O)C(O)C(C)O5)C(O)C(C)O4)c(C)c(O)c3c(O)c2C(=O)C1OC1CC(OC2CC(OC3CC(C)(O)C(O)C(C)O3)C(O)C(C)O2)C(O)C(C)O1 (centres unmarked) [YL-B169] | 2.37 | 0.028 L/h/kg | 0.00116 µM | 0.0206 µM | 0.018 µM | 0.0184 µM | 0.034 µM | 0.152 µM | 0.0302 µM | 0.026 µM | 0.0291 µM | 0.0244 µM | 0.0384 µM | 0.0251 µM | 0.0256 µM | 0.0687 µM | 0.0438 µM | GI50 [6, 27]: 0.034 µM; GI50 [17, 28]: 0.0313 µM; GI50 [18, 29]: 0.558 µM; GI50 [19, 30]: 0.0499 µM; GI50 [20, 31]: 0.0787 µM; GI50 ([21]; Table 6, 72 hr, non EWS cells): 0.176 µM; GI50 [22, 32]: 0.306 µM; GI50 ([23]; Table 6, 72 hr, non EWS cells): 0.239 µM; GI50 [24, 33]: 0.0621 µM; GI50 [25, 34]: 0.171 µM
2 | CO[C@H](C(=NOCCNC(=O)c1[nH]c2ccc(Cl)cc2c1-c1cnoc1)[C@@H](O)[C@@H](C)O)[C@@H]1Cc2cc3cc(O[C@H]4C[C@@H](O[C@H]5C[C@@H](O)[C@H](O)[C@@H](C)O5)[C@H](O)[C@@H](C)O4)c(C)c(O)c3c(O)c2C(=O)[C@H]1O[C@H]1C[C@@H](O[C@H]2C[C@@H](O[C@H]3C[C@](C)(O)[C@H](O)[C@@H](C)O3)[C@@H](O)[C@@H](C)O2)[C@H](O)[C@@H](C)O1 [YL-C108] | 1.44 | 0.024 L/h/kg | 0.00612 µM | 0.0403 µM | 0.034 µM | – | 0.126 µM | – | – | – | – | – | – | – | – | – | – | –
3 | CO[C@H](C(=NOCCNC(=O)c1[nH]c2ccc(F)cc2c1-c1ccc(Cl)cc1)[C@@H](O)[C@@H](C)O)[C@@H]1Cc2cc3cc(O[C@H]4C[C@@H](O[C@H]5C[C@@H](O)[C@H](O)[C@@H](C)O5)[C@H](O)[C@@H](C)O4)c(C)c(O)c3c(O)c2C(=O)[C@H]1O[C@H]1C[C@@H](O[C@H]2C[C@@H](O[C@H]3C[C@](C)(O)[C@H](O)[C@@H](C)O3)[C@@H](O)[C@@H](C)O2)[C@H](O)[C@@H](C)O1 [YL-C118] | 3.64 | 0.028 L/h/kg | 0.0366 µM | 0.582 µM | 0.232 µM | – | 0.417 µM | – | – | – | – | – | – | – | – | – | – | –
4 | COC(C(=NOCCNC(=O)c1[nH]c2ccc(O)cc2c1-c1ccc(Cl)cc1)C(O)C(C)O)C1Cc2cc3cc(OC4CC(OC5CC(O)C(O)C(C)O5)C(O)C(C)O4)c(C)c(O)c3c(O)c2C(=O)C1OC1CC(OC2CC(OC3CC(C)(O)C(O)C(C)O3)C(O)C(C)O2)C(O)C(C)O1 (centres unmarked) [YL-C120] | 3.04 | 0.025 L/h/kg | 0.0076 µM | 0.0314 µM | 0.036 µM | – | 0.066 µM | – | – | – | – | – | – | – | – | – | – | –
5 | CO[C@H](C(=NOCCNC(=O)c1[nH]c2ccc(Cl)cc2c1-c1cncnc1)[C@@H](O)[C@@H](C)O)[C@@H]1Cc2cc3cc(O[C@H]4C[C@@H](O[C@H]5C[C@@H](O)[C@H](O)[C@@H](C)O5)[C@H](O)[C@@H](C)O4)c(C)c(O)c3c(O)c2C(=O)[C@H]1O[C@H]1C[C@@H](O[C@H]2C[C@@H](O[C@H]3C[C@](C)(O)[C@H](O)[C@@H](C)O3)[C@@H](O)[C@@H](C)O2)[C@H](O)[C@@H](C)O1 [YL-C122] | 1.73 | 0.041 L/h/kg | 0.0185 µM | 0.124 µM | 0.162 µM | – | 0.477 µM | – | – | – | – | – | – | – | – | – | – | –

Further lines, with some results ahead:

Row | logP [1] | clearance [2] | IC50 [3] | IC50 [4] | Structure (SMILES) | GI50 ([5]; read-out: GI50 TC32, Table 5) | GI50 [5, 26] | GI50 ([6]; read-out: GI50 PC3, Table 5) | GI50 [7] | GI50 [8] | GI50 [9] | GI50 [10] | GI50 [11] | GI50 [12] | GI50 [13] | GI50 [14] | GI50 [15] | GI50 [16] | also measured
6 | 1.62 | 0.043 L/h/kg | 0.00215 µM | 0.0195 µM | CO[C@H](C(=NOCCNC(=O)c1cc2cc(F)ccc2[nH]1)[C@@H](O)[C@@H](C)O)[C@@H]1Cc2cc3cc(O[C@H]4C[C@@H](O[C@H]5C[C@@H](O)[C@H](O)[C@@H](C)O5)[C@H](O)[C@@H](C)O4)c(C)c(O)c3c(O)c2C(=O)[C@H]1O[C@H]1C[C@@H](O[C@H]2C[C@@H](O[C@H]3C[C@](C)(O)[C@H](O)[C@@H](C)O3)[C@@H](O)[C@@H](C)O2)[C@H](O)[C@@H](C)O1 [YL-B168] | 0.03 µM | 0.0303 µM | 0.065 µM | 0.258 µM | 0.0402 µM | 0.0345 µM | 0.0329 µM | 0.0392 µM | 0.0567 µM | 0.0309 µM | 0.0769 µM | 0.0688 µM | 0.0669 µM | GI50 ([6]; read-out: GI50 PC3, Table 6, non EWS cells): 0.0652 µM; GI50 ([17]; Lymphocyte, 72 h): 0.0499 µM; GI50 ([18]; A549, 72 h): 0.357 µM; GI50 ([19]; DU-145, 72 h): 0.0905 µM; GI50 ([20]; NCI-H460, 72 h): 0.116 µM; GI50 ([21]; 72 h): 0.47 µM; GI50 ([22]; HepG2, 72 h): > 1 µM; GI50 ([23]; 72 h): 0.275 µM; GI50 ([24]; PANC-1, 72 h): 0.105 µM; GI50 ([25]; 72 h): 0.191 µM
7 | 2.93 | – | 0.00462 µM | 0.0107 µM | CO[C@H](C(=NOCCNC(=O)c1cc2cc(OC(F)(F)F)ccc2[nH]1)[C@@H](O)[C@@H](C)O)[C@@H]1Cc2cc3cc(O[C@H]4C[C@@H](O[C@H]5C[C@@H](O)[C@H](O)[C@@H](C)O5)[C@H](O)[C@@H](C)O4)c(C)c(O)c3c(O)c2C(=O)[C@H]1O[C@H]1C[C@@H](O[C@H]2C[C@@H](O[C@H]3C[C@](C)(O)[C@H](O)[C@@H](C)O3)[C@@H](O)[C@@H](C)O2)[C@H](O)[C@@H](C)O1 [YL-B171] | 0.026 µM | 0.0256 µM | 0.049 µM | 0.0195 µM | 0.0371 µM | 0.051 µM | 0.0327 µM | 0.0354 µM | 0.0315 µM | 0.0204 µM | 0.0267 µM | 0.0367 µM | 0.0317 µM | GI50 [6, 27]: 0.0493 µM; GI50 [17, 28]: 0.0515 µM; GI50 [18, 29]: 0.114 µM; GI50 [19, 30]: 0.0325 µM; GI50 [20, 31]: 0.0695 µM; GI50 ([21]; Table 6, 72 hr, non EWS cells): 0.105 µM; GI50 [22, 32]: 0.202 µM; GI50 ([23]; Table 6, 72 hr, non EWS cells): 0.117 µM; GI50 [24, 33]: 0.138 µM; GI50 [25, 34]: 0.0976 µM
